One data set has as its target T1, APJ receptor (Homo sapiens, UniProt P35414).
T1 construct: expressed in transfected cells; host or cells: Human TRex cells (doxycycline-inducible)
T1 sequence (P35414 1-380): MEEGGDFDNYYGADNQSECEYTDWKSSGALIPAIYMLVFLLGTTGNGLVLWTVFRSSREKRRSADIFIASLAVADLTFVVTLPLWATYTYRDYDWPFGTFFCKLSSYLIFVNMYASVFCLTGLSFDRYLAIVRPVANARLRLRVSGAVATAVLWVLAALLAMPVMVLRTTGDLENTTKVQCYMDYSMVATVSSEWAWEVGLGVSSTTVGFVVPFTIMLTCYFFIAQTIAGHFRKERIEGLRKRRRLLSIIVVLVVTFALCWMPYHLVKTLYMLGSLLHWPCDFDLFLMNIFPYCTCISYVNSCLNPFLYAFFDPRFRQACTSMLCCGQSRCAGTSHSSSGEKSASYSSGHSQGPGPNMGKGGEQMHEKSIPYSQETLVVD
The data set is described as follows: HTRF cAMP assay, inhibition of NKH477 stimulated cAMP in Human TRex cells expressing APJ upon doxycycline induction (APJ-hTREX). To be noted: for Ranking: class combining EC50 and % histamine; for percent intrinsic activity at 0.3 µM: read-out: % IA (@ 300 nM). Type of data set: cell-based. Summed up: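 Cells stimulated with NKH477 and cAMP measured by HTRF competitive immunoassay (cryptate anti-cAMP antibody, d2-labeled cAMP). APJ-hTREX cells induced with […] doxycycline and seeded overnight at 40 k/well.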
For orientation: Time-resolved FRET reads energy transfer from a long-lived donor to a nearby acceptor.

Setting [1] is: inhibition of NKH477 stimulated cAMP, APJ-hTREX cells, read-out: APJ-hTREX EC50.

pEC50: −log10 of the molar value. Like-named read-outs stand apart in the source and are kept apart here. Where a SMILES comes first, the peptide text is derived from it. [ ]: non-standard residue; d: D form. The star is where a group is joined. Palmitoyl = CCCCCCCCCCCCCCCC(=O)*; Aib = CC(C)(N)C(=O)O

The source of these data is US20150011466A1, “APJ Receptor Compounds” (priority 2012, published 2015).

Broadly, the pEC50 is the negative decadic logarithm of the EC50, by convention in mol/L. Regarding `CCCCCCCCCCCCCCCC(=O)N[C@H](C(=O)N[C@H](C(=O)N[C@@H](Cc1ccccc1)C(=O)N[C@@H](CCCNC(=N)N)C(=O)N[C@@H](CO)C(=O)N[C@@H](CO)C(=O)N[C@@H](CCC(=O)O)C(=O)N[C@H](CCCCN)C(=O)N[C@@H](Cc1ccccc1)C(=O)N[C@@H](CCCNC(=N)N)C(=O)N[C@@H](CO)C(=O)N[C@@H](C)C(=O)N[C@@H](CC(=O)O)C(=O)N[C@H](C(=O)N[C@@H](Cc1ccccc1)C(=O)N[C@H](C(N)=O)[C@@H](C)CC)[C@@H](C)CC)C(C)C)[C@@H](C)O` [Compound 3] (Palmitoyl-TVFRSSE[dK]FRSADIFI-NH2; C-terminus assumed), on APJ receptor, the pEC50 is 6.62; the Ranking entry is “**** (EC50 101-500 nM and % histamine<35%)”; the percent intrinsic activity at 0.3 µM worked out at 71%. Also, the “Histimine (% vs. 48/40)” value in the data set “Histimine (% vs. 48/40)” is recorded as 29%.
Take `CCCCCCCCCCCCCCCC(=O)N[C@H](C(=O)N[C@H](C(=O)N[C@@H](Cc1ccccc1)C(=O)N[C@@H](CCCNC(=N)N)C(=O)N[C@@H](CO)C(=O)N[C@@H](CO)C(=O)N[C@@H](CCC(=O)O)C(=O)N[C@H](CCCCN)C(=O)N[C@@H](CCCNC(=N)N)C(=O)N[C@@H](CCCNC(=N)N)C(=O)N[C@@H](CO)C(=O)N[C@@H](C)C(=O)N[C@@H](CC(=O)O)C(=O)N[C@H](C(=O)N[C@@H](Cc1ccccc1)C(=O)NCC(N)=O)[C@@H](C)CC)C(C)C)[C@@H](C)O` [Compound 80] (Palmitoyl-TVFRSSE[dK]RRSADIFG-NH2): the percent intrinsic activity at 0.3 µM on APJ receptor is 35%. Moreover, the “Histimine (% vs. 48/40)” value in the data set “Histimine (% vs. 48/40)” is 52%.
As to `CCCCCCCCCCCCCCCC(=O)N[C@H](C(=O)N[C@H](C(=O)N[C@@H](Cc1ccccc1)C(=O)N[C@@H](CCCNC(=N)N)C(=O)N[C@@H](CO)C(=O)N[C@@H](CO)C(=O)N[C@@H](CCC(=O)O)C(=O)N[C@H](CCCCN)C(=O)N[C@@H](CCCNC(=N)N)C(=O)N[C@@H](Cc1c[nH]cn1)C(=O)N[C@@H](CO)C(=O)N[C@@H](C)C(=O)N[C@@H](CC(=O)O)C(=O)N[C@H](C(=O)N[C@@H](Cc1ccccc1)C(=O)N[C@H](C(N)=O)[C@@H](C)CC)[C@@H](C)CC)C(C)C)[C@@H](C)O` [Compound 14] (Palmitoyl-TVFRSSE[dK]RHSADIFI-NH2; C-terminus assumed), at APJ receptor, the Ranking entry is “**** (EC50 101-500 nM and % histamine<35%)”; the percent intrinsic activity at 0.3 µM worked out at 74%. Besides, the pEC50 at APJ receptor (setting [1]) is 6.60. Moreover, the “Histimine (% vs. 48/40)” value in the data set “Histimine (% vs. 48/40)” is listed as 20%.
Take `CCCCCCCCCCCCCCCC(=O)N[C@H](C(=O)N[C@H](C(=O)N[C@@H](Cc1ccccc1)C(=O)N[C@@H](CCCNC(=N)N)C(=O)N[C@@H](CO)C(=O)N[C@@H](CO)C(=O)N[C@@H](CCC(=O)O)C(=O)N[C@H](CCCCN)C(=O)N[C@@H](CCCNC(=N)N)C(=O)N[C@@H](CCCNC(=N)N)C(=O)N[C@@H](CO)C(=O)N[C@@H](C)C(=O)N[C@@H](CC(=O)O)C(=O)N[C@H](C(=O)N[C@@H](Cc1c[nH]cn1)C(=O)N[C@H](C(N)=O)[C@@H](C)CC)[C@@H](C)CC)C(C)C)[C@@H](C)O` [Compound 18] (Palmitoyl-TVFRSSE[dK]RRSADIHI-NH2): the percent intrinsic activity at 0.3 µM at APJ receptor amounted to 56%. The “Histimine (% vs. 48/40)” value in the data set “Histimine (% vs. 48/40)” worked out at 62%.
Taken in the same sequence, the figures for `CCCCCCCCCCCCCCCC(=O)N[C@H](C(=O)N[C@H](C(=O)N[C@@H](Cc1ccccc1)C(=O)N[C@@H](CCCNC(=N)N)C(=O)N[C@@H](CO)C(=O)N[C@@H](CO)C(=O)N[C@@H](CCC(=O)O)C(=O)N[C@H](CCCCN)C(=O)N[C@@H](CCCNC(=N)N)C(=O)N[C@@H](CCCNC(=N)N)C(=O)N[C@@H](CO)C(=O)N[C@@H](C)C(=O)N[C@@H](CC(=O)O)C(=O)N1CCC[C@H]1C(=O)N[C@@H](Cc1ccccc1)C(=O)N[C@H](C(N)=O)[C@@H](C)CC)C(C)C)[C@@H](C)O` [Compound 54] (Palmitoyl-TVFRSSE[dK]RRSADPFI-NH2) were 46% and 60%.
Taken in the same sequence, the figures for `CCCCCCCCCCCCCCCC(=O)N[C@H](C(=O)N[C@H](C(=O)N[C@@H](Cc1ccccc1)C(=O)N[C@@H](CCCNC(=N)N)C(=O)N[C@@H](CO)C(=O)N[C@@H](CO)C(=O)N[C@@H](CCC(=O)O)C(=O)N[C@H](CCCCN)C(=O)N[C@@H](CCCNC(=N)N)C(=O)N[C@@H](CCCNC(=N)N)C(=O)N[C@@H](CO)C(=O)N1CCC[C@H]1C(=O)N[C@@H](CC(=O)O)C(=O)N[C@H](C(=O)N[C@@H](Cc1ccccc1)C(=O)N[C@H](C(N)=O)[C@@H](C)CC)[C@@H](C)CC)C(C)C)[C@@H](C)O` [Compound 52] (Palmitoyl-TVFRSSE[dK]RRSPDIFI-NH2) were 45% and 75%.
Turning to `CCCCCCCCCCCCCCCC(=O)N[C@H](C(=O)N[C@H](C(=O)N[C@@H](Cc1ccccc1)C(=O)N[C@@H](CCCNC(=N)N)C(=O)N[C@@H](CO)C(=O)N[C@@H](CO)C(=O)N[C@@H](CCC(=O)O)C(=O)N[C@H](CCCCN)C(=O)NC(C)(C)C(=O)N[C@@H](CCCNC(=N)N)C(=O)N[C@@H](CO)C(=O)N[C@@H](C)C(=O)N[C@@H](CC(=O)O)C(=O)N[C@H](C(=O)N[C@@H](Cc1ccccc1)C(=O)N[C@H](C(N)=O)[C@@H](C)CC)[C@@H](C)CC)C(C)C)[C@@H](C)O` [Compound 61, TVFRSSEk(Aib)RSADIFI] (Palmitoyl-TVFRSSE[dK][Aib]RSADIFI-NH2; C-terminus assumed), on APJ receptor, the pEC50 was 5.28 and the percent intrinsic activity at 0.3 µM turned out to be 62%. The “Histimine (% vs. 48/40)” value in “Histimine (% vs. 48/40)” is listed as 25%.
As to `CCCCCCCCCCCCCCCC(=O)N[C@H](C(=O)N[C@H](C(=O)N[C@@H](Cc1ccccc1)C(=O)N[C@@H](CCCNC(=N)N)C(=O)N[C@@H](CO)C(=O)N[C@@H](CO)C(=O)N[C@@H](CCC(=O)O)C(=O)N[C@H](CCCCN)C(=O)N[C@@H](CCCNC(=N)N)C(=O)NCC(=O)N[C@@H](CO)C(=O)N[C@@H](C)C(=O)N[C@@H](CC(=O)O)C(=O)N[C@H](C(=O)N[C@@H](Cc1ccccc1)C(=O)N[C@H](C(N)=O)[C@@H](C)CC)[C@@H](C)CC)C(C)C)[C@@H](C)O` [Compound 76] (Palmitoyl-TVFRSSE[dK]RGSADIFI-NH2), the percent intrinsic activity at 0.3 µM on APJ receptor stood at 46%. Further, the “Histimine (% vs. 48/40)” value in the data set “Histimine (% vs. 48/40)” turned out to be 25%.
Taken in the same sequence, the figures for `CCCCCCCCCCCCCCCC(=O)N[C@H](C(=O)N[C@H](C(=O)N[C@@H](Cc1ccccc1)C(=O)N[C@@H](CCCNC(=N)N)C(=O)N[C@@H](CO)C(=O)N[C@@H](CO)C(=O)N[C@@H](CCC(=O)O)C(=O)N[C@H](CCCCN)C(=O)N[C@@H](CCCNC(=N)N)C(=O)N[C@@H](CCCNC(=N)N)C(=O)N[C@@H](CO)C(=O)N[C@@H](C)C(=O)N1CCC[C@H]1C(=O)N[C@H](C(=O)N[C@@H](Cc1ccccc1)C(=O)N[C@H](C(N)=O)[C@@H](C)CC)[C@@H](C)CC)C(C)C)[C@@H](C)O` [Compound 53] (Palmitoyl-TVFRSSE[dK]RRSAPIFI-NH2) were 75% and 115%.
On to `CCCCCCCCCCCCCCCC(=O)N[C@@H](CC(=O)O)C(=O)N[C@H](C(=O)N[C@@H](Cc1ccccc1)C(=O)N[C@@H](CCCNC(=N)N)C(=O)N[C@@H](CO)C(=O)N[C@@H](CO)C(=O)N[C@@H](CCC(=O)O)C(=O)N[C@H](CCCCN)C(=O)N[C@@H](CCCNC(=N)N)C(=O)N[C@@H](CCCNC(=N)N)C(=O)N[C@@H](CO)C(=O)N[C@@H](C)C(=O)N[C@@H](CC(=O)O)C(=O)N[C@H](C(=O)N[C@@H](Cc1ccccc1)C(=O)N[C@H](C(N)=O)[C@@H](C)CC)[C@@H](C)CC)C(C)C` [Compound 33] (Palmitoyl-DVFRSSE[dK]RRSADIFI-NH2; C-terminus assumed), for which, on APJ receptor, the pEC50 is 6.97; the Ranking result was “**** (EC50 101-500 nM and % histamine<35%)”; the percent intrinsic activity at 0.3 µM was 61%. Besides, the “Histimine (% vs. 48/40)” value in the data set “Histimine (% vs. 48/40)” turned out to be 11%.
With `CCCCCCCCCCCCCCCC(=O)N[C@H](C(=O)N[C@H](C(=O)N[C@@H](Cc1ccccc1)C(=O)N[C@@H](CCCNC(=N)N)C(=O)N[C@@H](CO)C(=O)N[C@@H](CO)C(=O)N[C@@H](CCC(=O)O)C(=O)N[C@H](CCCCN)C(=O)N[C@@H](CCCNC(=N)N)C(=O)N[C@@H](CCCNC(=N)N)C(=O)N[C@@H](CO)C(=O)N[C@@H](C)C(=O)N[C@@H](CC(=O)O)C(=O)N[C@H](C(=O)N[C@@H](Cc1ccccc1)C(=O)N1CCC[C@H]1C(N)=O)[C@@H](C)CC)C(C)C)[C@@H](C)O` [Compound 56] (Palmitoyl-TVFRSSE[dK]RRSADIFP-NH2; C-terminus assumed), on APJ receptor, the Ranking entry was “*** (EC50<100 nM and % histamine>35%)”; the percent intrinsic activity at 0.3 µM turned out to be 92%. Further, the negative-log EC50 (pEC50) on APJ receptor (setting [1]) was 7.81. In the data set “Histimine (% vs. 48/40)”, the “Histimine (% vs. 48/40)” value was 50%.
`CCCCCCCCCCCCCCCC(=O)N[C@H](C(=O)N[C@H](C(=O)N[C@@H](Cc1ccccc1)C(=O)N[C@@H](CCCNC(=N)N)C(=O)N[C@@H](CO)C(=O)N[C@@H](CO)C(=O)N[C@@H](CCC(=O)O)C(=O)N1CCC[C@H]1C(=O)N[C@@H](CCCNC(=N)N)C(=O)N[C@@H](CCCNC(=N)N)C(=O)N[C@@H](CO)C(=O)N[C@@H](C)C(=O)N[C@@H](CC(=O)O)C(=O)N[C@H](C(=O)N[C@@H](Cc1ccccc1)C(=O)N[C@H](C(N)=O)[C@@H](C)CC)[C@@H](C)CC)C(C)C)[C@@H](C)O` [Compound 48] (Palmitoyl-TVFRSSEPRRSADIFI-NH2; C-terminus assumed): at APJ receptor, the Ranking entry is “* (EC50>500 nM and % histamine>35%)”; the percent intrinsic activity at 0.3 µM amounted to 78%. For the same molecule, the negative logarithm of the EC50 (pEC50) at APJ receptor (setting [1]) is 5.47. The “Histimine (% vs. 48/40)” value in “Histimine (% vs. 48/40)” is 5%.
